In patent US8071810B2, “C5a receptor antagonists” (Jerini AG, priority 2005, dated 2011):

Target: T1, human C5a receptor (CD88) (Homo sapiens, UniProt P21730)
T1 construct: expressed in transfected cells; host or cells: rat basophilic leukemia (RBL) cells, stably transfected
T1 sequence (P21730 1-350): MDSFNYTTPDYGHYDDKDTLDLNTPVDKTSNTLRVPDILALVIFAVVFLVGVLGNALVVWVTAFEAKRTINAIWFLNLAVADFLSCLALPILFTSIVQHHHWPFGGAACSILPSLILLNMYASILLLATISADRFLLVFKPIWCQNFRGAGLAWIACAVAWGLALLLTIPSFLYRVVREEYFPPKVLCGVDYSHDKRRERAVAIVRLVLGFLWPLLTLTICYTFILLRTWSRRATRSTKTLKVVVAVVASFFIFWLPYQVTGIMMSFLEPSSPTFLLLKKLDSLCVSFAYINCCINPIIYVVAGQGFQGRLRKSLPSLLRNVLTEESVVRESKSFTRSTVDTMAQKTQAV
Assay: C5a induced enzyme (glucosaminidase) release assay in RBL cells expressing the human C5a receptor (Example 28)
Format: cell-based
Conditions: RBL cells with human C5aR; read-out: IC50 for the inhibition of C5a induced enzyme release
How it was run: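 Rat basophilic leukemia (RBL) cells expressing human C5a receptor, at 2×10^6 cells/ml, primed with cytochalasin B, then incubated with test compound 10 min at 37 °C.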

Which IC50 does the source give for CCc1c(N)cc(Cl)c(CC)c1NC(=O)N(Cc1ccc(Cl)nc1)c1ccc(C(C)C)cc1 here?
The IC50 was 62 nM.

Which IC50 does the source give for CCc1c(N)cc(Cl)c(CC)c1NC(=O)N(c1ccc(C(C)C)cc1)[C@@H](C)c1ccc(F)cc1 [compound 81, (S)-3-(3-amino-5-chloro-2,6-diethyl-phenyl)-1-[1-(4-fluor-phenyl)-ethyl]-1-(4-isopropyl-phenyl)-urea] here?
The IC50 was 38 nM.

CCc1c(N)cc(Cl)c(CC)c1NC(=O)N(c1ccc(C(C)C)cc1)[C@@H](C)c1ccc(OC)cc1 [compound 66, (S)-3-(3-amino-5-chloro-2,6-diethyl-phenyl)-1-(4-isopropyl-phenyl)-1-[1-(4-methoxy-phenyl)-ethyl]-urea] was tested. Which IC50 did it give?
The IC50 was 55 nM.

Which IC50 does the source give for CCc1ccc(N(Cc2ccc(Cl)cc2)C(=O)Nc2c(CC)c(N)cc(Cl)c2CC)cc1 here?
Its IC50 is 86 nM.

CCc1c(N)cc(Cl)c(CC)c1NC(=O)N(c1ccc(OC)cc1F)[C@@H](C)c1ccc(Cl)cc1 was tested. Which IC50 did it give?
Its IC50 is 31 nM.

Same assay, conditions: inhibition of C5a induced enzyme release, RBL cells with human C5aR; read-out: Activity-range (antagonistic activity, IC50 enzyme release)

CCc1c(N)cc(Cl)c(CC)c1NC(=O)N(c1ccc(C(C)C)cc1)C1CCc2ccccc21 (stereo not shown) [compound 84, 3-(3-amino-5-chloro-2,6-diethyl-phenyl)-1-indane-1-yl-1-(4-isopropyl-phenyl)-urea] was tested. Which IC50 did it give?
Its IC50 is 200 to 5000 nM.

Which IC50 does the source give for CCc1c(N)cc(Cl)c(CC)c1NC(=O)N(c1ccc(C(C)C)cc1)C1CCOc2ccccc21 (stereo not shown) [compound 89, 3-(3-amino-5-chloro-2,6-diethyl-phenyl)-1-chroman-4-yl-1-(4-isopropyl-phenyl)-urea] here?
Its IC50 is 200 to 5000 nM.

Which IC50 does the source give for CCc1ccc(N(C(=O)Nc2c(CC)c(N)cc(Cl)c2CC)[C@@H](C)c2ccc(F)cc2)cc1 [compound 82, (S)-3-(3-amino-5-chloro-2,6-diethyl-phenyl)-1-(4-ethyl-phenyl)-1-[1-(4-fluoro-phenyl)-ethyl]-urea] here?
Its IC50 is 60 to 200 nM.

Which IC50 does the source give for CCc1c(N)cc(Cl)c(CC)c1NC(=O)N(Cc1ccc(C(F)(F)F)nc1)c1ccc(C(C)C)cc1 [compound 87, 3-(3-amino-5-chloro-2,6-diethyl-phenyl)-1-(4-isopropyl-phenyl)-1-(6-trifluoromethyl-pyridin-3-ylmethyl)-urea] here?
Its IC50 is 200 to 5000 nM.

How did the IC50 turn out when CCc1c(N)cc(Cl)c(CC)c1NC(=O)N(c1ccc(C(C)C)cc1)[C@@H](C)c1ccc(Cl)cc1 [compound 78, (S)-3-(3-amino-5-chloro-2,6-diethyl-phenyl)-1-[1-(4-chlor-phenyl)-ethyl]-1-(4-isopropyl-phenyl)-urea] was run?
The IC50 was less than 60 nM.

How did the IC50 turn out when CCc1ccc(N(Cc2ccc(C)cc2)C(=O)Nc2c(CC)ccc(N)c2CC)cc1 [compound 54, 3-(3-amino-2,6-diethyl-phenyl)-1-(4-ethyl-phenyl)-1-(4-methyl-benzyl)-urea] was run?
The IC50 was 200 to 5000 nM.

For CCc1c(N)cc(Cl)c(CC)c1NC(=O)N(Cc1ccccc1OC)c1ccc(C(C)C)cc1 [compound 62, 3-(3-amino-5-chloro-2,6-diethyl-phenyl)-1-(4-isopropyl-phenyl)-1-(2-methoxy-benzyl)-urea], which IC50 is on record?
Its IC50 is 200 to 5000 nM.

For C#Cc1ccc(N(Cc2ccc(OC)cc2)C(=O)Nc2c(CC)c(N)cc(Cl)c2CC)cc1 [compound 85, 3-(3-amino-5-chloro-2,6-diethyl-phenyl)-1-(4-ethynyl-phenyl)-1-(4-methoxy-benzyl)-urea], which IC50 is on record?
The IC50 was 200 to 5000 nM.

For Cc1ccc([C@H](C)N(C(=O)Nc2c(C)c(N)cc(Cl)c2C)c2ccc(C(C)C)cc2)cc1 [compound 79, (S)-3-(3-amino-5-chloro-2,6-dimethyl-phenyl)-1-(4-isopropyl-phenyl)-1-(1-p-tolyl-ethyl)-urea], which IC50 is on record?
The IC50 was 200 to 5000 nM.

How did the IC50 turn out when COc1ccc(CN(C(=O)Nc2c(C(C)C)ccc(N)c2C(C)C)c2ccc(C(C)C)cc2)cc1 [compound 25, 3-(3-Amino-2,6-diisopropyl-phenyl)-1-(4-isopropyl-phenyl)-1-(4-methoxy-benzyl)-urea] was run?
The IC50 was 200 to 5000 nM.

With CCc1ccc(N(Cc2ccc(-n3cccn3)cc2)C(=O)Nc2c(CC)c(N)cc(Cl)c2CC)cc1 [compound 110, 3-(3-amino-5-chloro-2,6-diethyl-phenyl)-1-(4-ethyl-phenyl)-1-(4-pyrazol-1-yl-benzyl)-urea] as the compound, how does the IC50 read?
The IC50 was 200 to 5000 nM.

How did the IC50 turn out when CCc1ccc(N(Cc2cnn(CC)c2)C(=O)Nc2c(CC)c(N)cc(Cl)c2CC)cc1 [compound 91, 3-(3-amino-5-chloro-2,6-diethyl-phenyl)-1-(4-ethyl-phenyl)-1-(1-ethyl-1H-pyrazol-4-ylmethyl)-urea] was run?
Its IC50 is 200 to 5000 nM.

COc1ccc(CN(C(=O)Nc2c(C)ccc3c2CCCN3)c2ccc(C(C)C)cc2)cc1 [compound 40, 1-(4-isopropyl-phenyl)-1-(4-methoxy-benzyl)-3-(6-methyl-1,2,3,4-tetrahydro-chinolin-5-yl)-urea] was tested. Which IC50 did it give?
The IC50 was greater than 5000 nM.

With CCNc1ccc(CC)c(NC(=O)N(Cc2ccc(OC)cc2)c2ccc(C(C)C)cc2)c1CC [compound 142, 3-(2,6-diethyl-3-ethylamino-phenyl)-1-(4-isopropyl-phenyl)-1-(4-methoxy-benzyl)-urea] as the compound, how does the IC50 read?
Its IC50 is greater than 5000 nM.

With CCc1c(N)cc(Cl)c(CC)c1NC(=O)N(Cc1ccc(Cl)cc1)c1cccc2ccccc12 [compound 108, 3-(3-amino-5-chloro-2,6-diethyl-phenyl)-1-(4-chloro-benzyl)-1-naphthaline-1-yl-urea] as the compound, how does the IC50 read?
The IC50 was 200 to 5000 nM.

Which IC50 does the source give for CCc1ccc(N(Cc2ccc(Br)cc2)C(=O)Nc2c(CC)c(N)cc(Cl)c2CC)cc1 [compound 99, 3-(3-amino-5-chloro-2,6-diethyl-phenyl)-1-(4-bromo-benzyl)-1-(4-ethyl-phenyl)-urea] here?
The IC50 was less than 60 nM.

For CCc1ccc(N)c(CC)c1NC(=O)N(Cc1ccc(Cl)cc1)c1ccc(NC)cc1 [compound 119, 3-(3-amino-2,6-diethyl-phenyl)-1-(4-chloro-benzyl)-1-(4-methylamino-phenyl)-urea], which IC50 is on record?
Its IC50 is 60 to 200 nM.

Which IC50 does the source give for CCc1c(N)cc(Cl)c(CC)c1NC(=O)N(Cc1ccccc1)c1ccc(N(C)C)cc1 [compound 128, 3-(3-amino-5-chloro-2,6-diethyl-phenyl)-1-benzyl-1-(4-dimethylamino-phenyl)-urea] here?
Its IC50 is 200 to 5000 nM.

Which IC50 does the source give for CCc1ccc(N)c(CC)c1NC(=O)N(Cc1ccc(OC)cc1F)c1ccc(C(C)C)cc1 [compound 59, 3-(3-amino-2,6-diethyl-phenyl)-1-(2-fluoro-4-methoxy-benzyl)-1-(4-isopropyl-phenyl)-urea] here?
Its IC50 is 200 to 5000 nM.

CCc1c(N)cc(Cl)c(CC)c1NC(=O)N(Cc1ccc(Cl)cc1)c1ccc(OC(F)F)cc1 [compound 117, 3-(3-amino-5-chloro-2,6-diethyl-phenyl)-1-(4-chloro-benzyl)-1-(4-difluoromethoxy-phenyl)-urea] was tested. Which IC50 did it give?
Its IC50 is 200 to 5000 nM.

Which IC50 does the source give for CCc1c(N)cc(Cl)c(CC)c1NC(=O)N(c1ccc(C(C)C)cc1)C1CCSc2ccccc21 (stereo not shown) [compound 101, 3-(3-amino-5-chloro-2,6-diethyl-phenyl)-1-(4-isopropyl-phenyl)-1-thiochroman-4-yl-urea] here?
Its IC50 is 200 to 5000 nM.

With CCc1c(N)cc(Cl)c(CC)c1NC(=O)N(Cc1ccc(S(C)(=O)=O)cc1)c1ccc(C(C)C)cc1 [compound 64, 3-(3-amino-5-chloro-2,6-diethyl-phenyl)-1-(4-isopropyl-phenyl)-1-(4-methansulfonyl-benzyl)-urea] as the compound, how does the IC50 read?
Its IC50 is 200 to 5000 nM.

How did the IC50 turn out when CCc1ccc(N(Cc2ccc(N)cc2)C(=O)Nc2c(CC)c(N)cc(Cl)c2CC)cc1 [compound 116, 1-(4-amino-benzyl)-3-(3-amino-5-chloro-2,6-diethyl-phenyl)-1-(4-ethyl-phenyl)-urea] was run?
The IC50 was 200 to 5000 nM.

Which IC50 does the source give for CCc1ccc(N)c(CC)c1NC(=O)N(c1ccc(C(C)C)cc1)[C@@H](C)c1ccc(OC)cc1 [compound 71, (S)-3-(3-amino-2,6-diethyl-phenyl)-1-(4-isopropyl-phenyl)-1-[1-(4-methoxy-phenyl)-ethyl]-urea] here?
Its IC50 is 60 to 200 nM.

For CCc1ccc(N(C(=O)Nc2c(C(C)(C)C)ccc(N)c2C)[C@@H](C)c2ccc(Cl)cc2)cc1 [compound 111, (S)-3-(3-amino-6-tert-butyl-2-methyl-phenyl)-1-[1-(4-chloro-phenyl)-ethyl]-1-(4-ethyl-phenyl)-urea], which IC50 is on record?
Its IC50 is 200 to 5000 nM.

Same assay, conditions: ratio of enzyme release IC50 values

With CCc1c(N)cc(Cl)c(CC)c1NC(=O)N(c1ccc(C(C)C)cc1)[C@@H](C)c1ccc(OC)cc1 [compound 66, (S)-3-(3-amino-5-chloro-2,6-diethyl-phenyl)-1-(4-isopropyl-phenyl)-1-[1-(4-methoxy-phenyl)-ethyl]-urea] as the compound, how does the “Times higher antagonistic activity of S configuration than (R) configuration (56)” value read?
The value was 11.
